Reference: patent publication US20060079453A1, “Hla binding peptides and their uses” (priority 2002, published 2006)
No end group written: not given here.

How the values were obtained:
Experiment in all cases: biochemical
Type in all cases: binding
HLA-DR DRB1*0901 (DR9) = HLA-DR DRB1*0901 (DR9) (Homo sapiens, UniProt P01903+P01911, A100R/A103E/D57H/D86V/F55Y/F60I/F76Y/I96F/K127E/L162R/M171V/P40D/Q125H/Q99R/R33Q/R42F/S133A/S66N/T210M/V115G/W38K/Y107V/Y59G/Y89S); conditions: DRB1 *0901
HLA-DR DRB1*0401 (DR4) = HLA-DR DRB1*0401 (DR4) (Homo sapiens, UniProt P01903+P01911, A100K/A169T/F76Y/I96L/K127E/L162R/M171V/N62H/P40V/Q125Y/R42H/S133A/S149N/S66Y/V115G/V209L/W38E); conditions: DRB1 *0401
HLA-DR DRB1*0101 (DR1) = HLA-DR DRB1*0101 (DR1) (Homo sapiens, UniProt P01903+P01911, A100R/D57E/F55L/F60I/F76Y/I96L/L162R/M171V/P40L/Q125E/R42F/V115G/Y59C); conditions: DRB1 *0101
HLA-DR DRB5*0101 (DR51) = HLA-DR DRB5*0101 (DR51) (Homo sapiens, UniProt P01903+Q30154); conditions: DRB5 *0101
HLA-DR DRB4*0101 (DR53) = HLA-DR DRB4*0101 (DR53) (Homo sapiens, UniProt P01903+P13762, G164S); conditions: DRB4 *0101
HLA-DR DRB1*0405 (DR4) = HLA-DR DRB1*0405 (DR4) (Homo sapiens, UniProt P01903+P01911, A100R/A169T/D86S/F76Y/I96L/K127E/L162R/M171V/N62H/P40V/Q125Y/R42H/S133A/S149N/S66Y/V115G/V209L/W38E); conditions: DRB1 *0405
HLA-DR DRB1*0301 (DR3) = HLA-DR DRB1*0301 (DR3) (Homo sapiens, UniProt P01903+P01911, A100K/A102G/A103R/A169T/F55Y/I96L/K41T/L162R/M171V/P40S/Q125H/Q178H/Q39Y/R42S/S66N/T106N/T262R/W38E/Y61H)
HLA-DR DRB1*1101 (DR11) = HLA-DR DRB1*1101 (DR11) (Homo sapiens, UniProt P01903+P01911, A100R/A169T/A87E/I96F/K41T/L162R/M171V/P40S/Q125H/Q178H/Q39Y/Q99D/R42S/S66Y/T262R/V115G/W38E); conditions: DRB1 *1101
HLA-DR DRB1*1302 (DR13) = HLA-DR DRB1*1302 (DR13) (Homo sapiens, UniProt P01903+P01911, A100E/A169T/K41T/L162R/M171V/P40S/Q125H/Q178H/Q39Y/Q99D/R42S/S66N/T262R/V115G/W38E/Y61H); conditions: DRBI *1302
HLA-DR DRB1*0802 (DR8) = HLA-DR DRB1*0802 (DR8) (Homo sapiens, UniProt P01903+P01911, A100R/A103L/A169T/F76Y/H45Y/I96F/K41T/L162R/M171V/P40S/Q125H/Q178H/Q39Y/Q99D/R218S/R42G/S66Y/V115G/W38E)
HLA-DR DRB1*1501 (DR15) = HLA-DR DRB1*1501 (DR15) (Homo sapiens, UniProt P01903+P01911); conditions: DRBI *1501
HLA-DR DRB3*0101 (DR52) = HLA-DR DRB3*0101 (DR52) (Homo sapiens, UniProt P01903+P79483)
HLA-DR DRB1*0701 (DR7) = HLA-DR DRB1*0701 (DR7) (Homo sapiens, UniProt P01903+P01911, A100R/A102G/A103Q/D57E/D86V/E43K/F76Y/K127E/L162R/M171V/P40G/Q125H/Q99D/R33Q/R42Y/R54Q/S133A/S66F/T210M/V115G/Y107V/Y59L/Y89S); conditions: DRB1 *0701

Chain of HLA-DR DRB1*1302 (DR13) (P01903 26-254 limits assumed, other chains not shown): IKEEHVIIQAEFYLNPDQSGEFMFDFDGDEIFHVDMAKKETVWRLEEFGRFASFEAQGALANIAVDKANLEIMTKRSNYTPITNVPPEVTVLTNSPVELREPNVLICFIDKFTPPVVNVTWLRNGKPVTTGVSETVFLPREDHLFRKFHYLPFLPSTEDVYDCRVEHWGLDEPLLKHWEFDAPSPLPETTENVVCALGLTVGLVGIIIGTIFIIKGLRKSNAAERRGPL
Chain of HLA-DR DRB1*1101 (DR11) (P01903 26-254 limits assumed, other chains not shown): as above
Chain of HLA-DR DRB1*0301 (DR3) (P01903 26-254 limits assumed, other chains not shown): as above

| Sequence | IC50 (HLA-DR DRB1*0901 (DR9)) [µM] | IC50 (HLA-DR DRB1*0401 (DR4)) [µM] | IC50 (HLA-DR DRB1*0101 (DR1)) [µM] | IC50 (HLA-DR DRB5*0101 (DR51)) [µM] | IC50 (HLA-DR DRB4*0101 (DR53)) [µM] | IC50 (HLA-DR DRB1*0405 (DR4)) [µM] | IC50 (HLA-DR DRB1*0301 (DR3)) [µM] | IC50 (HLA-DR DRB1*1101 (DR11)) [µM] | IC50 (HLA-DR DRB1*1302 (DR13)) [µM] | IC50 (HLA-DR DRB1*0802 (DR8)) [µM] | IC50 (HLA-DR DRB1*1501 (DR15)) [µM] | IC50 (HLA-DR DRB3*0101 (DR52)) [µM] | IC50 (HLA-DR DRB1*0701 (DR7)) [µM] |
| --- | --- | --- | --- | --- | --- | --- | --- | --- | --- | --- | --- | --- | --- |
| VTGERGFFYTPKTRR | > 300 | 7.23 | 18.9 | 0.54 | > 29.8 | 13.4 | 3.02 | 10.1 | 25.4 | 9.41 | 2.82 | 244 | 27.8 |
| ALLKNYGLLYTFRKD | 2.63 | 0.16 | 0.019 | 0.029 | 1.34 | 0.303 | 5.98 | 1.74 | 0.00089 | 3.62 | 0.0065 | 0.05 | 5.92 |
| TTVLGKLSQELHKLQ | 23.8 | – | – | 10.6 | 0.241 | > 9.81 | 92.8 | 3.52 | 12.7 | 16.2 | 0.525 | > 263 | – |
| EHTSLNENITVPDTK | > 78.9 | – | 43.9 | 5.55 | > 29 | 1.24 | 33.6 | > 408 | 0.013 | > 16.3 | 11.1 | > 42.2 | 37.2 |
| QLAFDTYQEFEQNPQ | > 59.5 | 28.6 | > 18 | > 9.51 | > 32.8 | 4.84 | 7.85 | > 15.4 | 19.7 | > 33.3 | > 86.7 | 0.738 | 21.1 |
| KEDSHTAWTIVRVEI | 6.08 | 0.746 | 1.91 | 0.575 | 0.018 | 0.302 | 44.8 | 7.44 | 3.05 | > 79 | 1.99 | 56.2 | 0.035 |
| TCVLGKLSQELHKLQ | 17.9 | 14.8 | 0.026 | 3.99 | 0.163 | 9 | 29.5 | 1.4 | > 12.6 | 7.66 | 2.01 | > 263 | 18.7 |
| YLVCGERGFFYTPKT | 1.52 | 1.44 | 11.1 | 95.2 | 34.5 | 0.73 | 37.2 | > 10.5 | 9.27 | > 54.4 | 10.7 | 92.8 | 64.6 |
| DMDKVETFLRIVQTR | 51.5 | 2.03 | 1.11 | – | 0.19 | 0.454 | 11.2 | 0.206 | 3.38 | 0.183 | > 86.7 | 13.7 | 0.436 |
| RLRIVRGTQLFEDNYAL | 1.83 | 8.39 | 0.0048 | 0.046 | 0.12 | 1.02 | 11.3 | 2.07 | 0.0052 | 6.32 | 0.031 | 1.2 | 0.012 |
| SDSNIYDLLKDLEEG | 50.1 | 17.5 | > 18 | > 9.51 | 24.3 | 0.137 | 124 | > 15.4 | > 16.2 | > 33.3 | > 86.7 | > 18.7 | > 85 |
| YLVCGERGFLYTPKT | 0.124 | > 20.5 | 0.155 | 0.971 | 33.1 | > 30.1 | 2.03 | > 1110 | 2.12 | > 54.4 | > 25.6 | > 95.2 | 12.8 |
| LHKLQTYPRTNTGSG | > 29.2 | – | 2.12 | 0.04 | 22.9 | > 7.4 | > 205 | 6.09 | > 12.6 | 1.62 | 0.157 | > 263 | 40.2 |
| ICLLLIQSWLEPVQF | > 59.5 | 11.3 | – | > 9.51 | 0.049 | 0.071 | 50.9 | > 15.4 | 0.954 | > 33.3 | 1.77 | 188 | 0.643 |
